Where two headings read alike, the source gives them in different places. Where a SMILES comes first, the peptide text is derived from it.
Legend:
HLA-A*0201 = HLA-A*0201 (Homo sapiens, UniProt P04439, D140Y/D185E/D98H/E176V/E277Q/G131W/G231S/I119V/I121R/I166T/I218V/L300P/L318F/N151K/N90K/P208A/P217A/Q86G/Q94H/R138H/R169H/T345S); assay: In vitro class I HLA binding assay (fluorescence polarization competition); settings: allele A*0201; fluorescence polarization competition; read-out: IC50 (nM), in vitro HLA binding affinity
Description: A cell-free class I HLA binding assay that allows for in vitro quantification of peptide-HLA binding affinity in a competition format was used. In this assay, a fluorescently labeled, high binding, control peptide is loaded onto 384-well ½-area plates along with unlabeled experimental peptides. To remove endogenous peptides and render the HLA A and B molecules receptive to binding, HLA is heated at 53°C for 15 minutes and immediately added to the assay. The mixture is then allowed to stand for three days. Once the mixture has reached steady equilibrium (at 72 hours), displacement of the high binding control peptide is measured through fluorescence polarization. Binding of experimental peptides is expressed as the percent inhibition of the labeled control peptide (experimental fluorescence / control fluorescence, multiplied by 100). The percent inhibition values for each experimental peptide (across a range of molar concentrations) are used to calculate the concentration which inhibits 50% of the labeled control peptide’s specific binding. This value is referred to as the peptide’s IC50.

HLA-DRB1*1101 = HLA-DRB1*1101 (Homo sapiens, UniProt P01903+P01911, A100R/A169T/A87E/I96F/K41T/L162R/M171V/P40S/Q125H/Q178H/Q39Y/Q99D/R42S/S66Y/T262R/V115G/W38E); assay: biochemical; assay type: binding; settings: binding inhibition assay; NB = non-binder (no dose-dependent inhibition); read-out: DRB1*1101 IC50
Description: (§1) The binding assay conducted by EpiVax yields an indirect measure of peptide-MHC affinity as it utilizes a competition assay format per the methodology described in Steere et al. ([35]). […] Post incubation, the mixtures are moved to a 96-well plate coated with anti-HLA-DR antibody to capture HLA-peptide complexes. Time-resolved fluorescence measurement of the bound labeled reference peptide complex present in each mixture is detected with a europium-linked probe via fluorescent spectrophotometry using a SpectraMax M5 system. HLA binding affinity of each test peptide is expressed as the percent inhibition of reference peptide binding. Percent inhibition values (across the test peptide titration range) are used to calculate the half maximal inhibitory concentration (IC50) of each test peptide. For these studies, test peptides were assessed using a range of final concentrations from 100,000 nM to 100 nM. The panel of commercially-available HLA-DRB1 allele monomers used includes: *0101, *0301, *0401, *0701, *0801, *1101, *1301 and *1501. EpiVax established HLA-DRB1 binding affinity cutoffs were used to rank the IC50 values.
(§2) In vitro HLA binding assays (step 2 of workflow shown in Figure 1 ) were carried out with the synthesized peptides to verify the EpiMatrix outputs and provide a measure of accuracy for comparing in silico-predicted HLA-DRB1 allele binding to laboratory assessments of HLA-DRB1 allele binding. These assessments were conducted using a competition assay format whereby IC50 values were calculated based on the ability of the test peptide to compete with a labeled, high binding affinity reference peptide for HLA-DRB1 molecule binding. Sequences for the high affinity reference peptides and the negative control peptide, known not to bind any of the HLA-DRB1 molecules, are provided in Table S18 .

HLA-DRB1*1501 = target: T1, HLA-DRB1*1501 (Homo sapiens, UniProt P01903+P01911); assay: biochemical; assay type: binding
T1 construct: purchased
Description: as §1, §2

HLA-DRB1*0101 = target: T2, HLA-DRB1*0101 (Homo sapiens, UniProt P01903+P01911, A100R/D57E/F55L/F60I/F76Y/I96L/L162R/M171V/P40L/Q125E/R42F/V115G/Y59C); assay: biochemical; assay type: binding
T2 construct: purchased
Description: as §1, §2

HLA-DRB1*0801 = HLA-DRB1*0801 (Homo sapiens, UniProt P01903+P01911, A100R/A103L/A169T/D86S/F76Y/H45Y/I96F/K41T/L162R/M171V/P40S/Q125H/Q178H/Q39Y/Q99D/R218S/R42G/S66Y/V115G/W38E); assay: biochemical; assay type: binding
Description: as §1, §2

HLA-DRB1*0701 = HLA-DRB1*0701 (Homo sapiens, UniProt P01903+P01911, A100R/A102G/A103Q/D57E/D86V/E43K/F76Y/K127E/L162R/M171V/P40G/Q125H/Q99D/R33Q/R42Y/R54Q/S133A/S66F/T210M/V115G/Y107V/Y59L/Y89S); assay: biochemical; assay type: binding
Description: as §1, §2

HLA-DRB1*1301 = HLA-DRB1*1301 (Homo sapiens, UniProt P01903+P01911, A100E/A169T/K41T/L162R/M171V/P40S/Q125H/Q178H/Q39Y/Q99D/R42S/S66N/T262R/W38E/Y61H); assay: biochemical; assay type: binding; settings: read-out: DRB1*1301 IC50
Description: as §1, §2

[1] = binding inhibition assay, NB = non-binder (no dose-dependent inhibition), read-out: DRB1*1501 IC50
[2] = binding inhibition assay, NB = non-binder (no dose-dependent inhibition), read-out: DRB1*0101 IC50
[3] = binding inhibition assay, NB = non-binder (no dose-dependent inhibition), read-out: DRB1*0801 IC50
[4] = binding inhibition assay, NB = non-binder (no dose-dependent inhibition), read-out: DRB1*0701 IC50
[5] = binding inhibition assay, NB = non-binder (no dose-dependent inhibition)

Chain of HLA-DRB1*1101 (P01903 26-254 limits assumed, other chains not shown): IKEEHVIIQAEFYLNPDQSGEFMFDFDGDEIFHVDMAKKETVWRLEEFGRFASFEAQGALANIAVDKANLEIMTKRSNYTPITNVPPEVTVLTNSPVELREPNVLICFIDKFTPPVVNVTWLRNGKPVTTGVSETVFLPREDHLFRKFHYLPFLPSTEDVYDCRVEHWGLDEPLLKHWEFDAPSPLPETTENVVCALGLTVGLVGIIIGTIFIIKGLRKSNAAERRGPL

| Structure (SMILES) | IC50 (HLA-DRB1*1101) | IC50 (HLA-DRB1*1501; [1]) | IC50 (HLA-DRB1*0101; [2]) | IC50 (HLA-DRB1*0801; [3]) | IC50 (HLA-DRB1*0701; [4]) | IC50 (HLA-DRB1*1301; [5]) | also measured |
| --- | --- | --- | --- | --- | --- | --- | --- |
| CC[C@H](C)[C@H](NC(=O)[C@H](CO)NC(=O)[C@H](C)NC(=O)[C@H](CC(=O)O)NC(=O)[C@H](CC(=O)O)NC(=O)[C@H](CC(N)=O)NC(=O)[C@H](Cc1ccc(O)cc1)NC(=O)[C@H](CCC(N)=O)NC(=O)[C@@H](N)Cc1ccccc1)C(=O)O [RIPR_0991] (H-FQYNDDASI-OH) |  |  |  |  |  |  | IC50 (HLA-A*0201): 275 nM |
| CC[C@H](C)[C@H](NC(=O)[C@H](Cc1ccc(O)cc1)NC(=O)[C@H](CCC(=O)O)NC(=O)[C@H](CC(=O)O)NC(=O)[C@H](Cc1ccc(O)cc1)NC(C)=O)C(=O)N[C@@H](Cc1c[nH]cn1)C(=O)N[C@@H](CCCCN)C(=O)N[C@@H](CC(C)C)C(=O)N[C@H](C(=O)N[C@@H](CC(C)C)C(=O)N[C@@H](CO)C(=O)N[C@H](C(=O)N[C@@H](CCCCN)C(=O)N[C@@H](CO)C(=O)N[C@@H](CCCCN)C(=O)N[C@@H](CC(N)=O)C(=O)N[C@@H](CC(C)C)C(=O)N[C@@H](CC(N)=O)C(=O)N[C@@H](CCCCN)C(=O)N[C@@H](CC(=O)O)C(=O)N[C@@H](CC(C)C)C(=O)N[C@@H](CO)C(N)=O)C(C)C)[C@@H](C)CC [RH5_009] (Ac-YDEYIHKLILSVKSKNLNKDLS-NH2) | 10.5 µM | 0.01 µM | 0.043 µM | 6.46 µM | 0.381 µM | 88.8 µM |  |
| CC[C@H](C)[C@H](NC(=O)[C@H](CO)NC(=O)[C@H](CCCCN)NC(=O)[C@H](Cc1ccccc1)NC(=O)[C@H](CCC(=O)O)NC(=O)[C@H](CO)NC(=O)[C@H](Cc1ccc(O)cc1)NC(=O)[C@H](CCSC)NC(=O)[C@H](CCCCN)NC(=O)[C@H](Cc1ccc(O)cc1)NC(=O)[C@H](CC(N)=O)NC(=O)[C@H](CC(N)=O)NC(=O)CNC(=O)[C@H](CCCCN)NC(=O)[C@H](CCC(N)=O)NC(=O)[C@H](Cc1ccc(O)cc1)NC(=O)[C@H](CCC(=O)O)NC(=O)[C@H](CCC(N)=O)NC(=O)[C@H](Cc1ccc(O)cc1)NC(C)=O)C(=O)N[C@@H](CCCCN)C(N)=O [EBA175_012] (Ac-YQEYQKGNNYKMYSEFKSIK-NH2) |  | 29.4 µM | 0.226 µM | 33.2 µM | 14 µM |  |  |
| CC[C@H](C)[C@H](NC(=O)[C@H](CCSC)NC(=O)[C@H](CO)NC(=O)[C@H](C)N)C(=O)N[C@@H](CCCCN)C(=O)N[C@@H](CO)C(=O)N[C@@H](C)C(=O)N[C@@H](Cc1ccccc1)C(=O)N[C@@H](CC(C)C)C(=O)N1CCC[C@H]1C(=O)N[C@H](C(=O)NCC(=O)N[C@@H](C)C(=O)N[C@@H](Cc1ccccc1)C(=O)N[C@@H](CCCCN)C(N)=O)[C@@H](C)O [AMA1_006B] (H-ASMIKSAFLPTGAFK-NH2) |  | 14.5 µM | 3.22 µM |  | 1.52 µM | > 100 µM |  |
| CC[C@H](C)[C@H](NC(=O)[C@H](CC(N)=O)NC(=O)[C@H](CC(N)=O)NC(=O)[C@H](CCCCN)NC(=O)[C@H](Cc1c[nH]cn1)NC(=O)[C@H](CCC(=O)O)NC(=O)[C@H](CO)NC(=O)[C@H](CC(C)C)NC(=O)[C@H](CCSC)NC(=O)[C@H](C)NC(=O)[C@H](CCC(=O)O)NC(=O)[C@H](Cc1c[nH]c2ccccc12)NC(=O)[C@H](CC(C)C)NC(=O)[C@H](CCCCN)NC(=O)[C@H](CCC(=O)O)NC(C)=O)C(=O)N[C@@H](CC(N)=O)C(=O)N[C@@H](CC(N)=O)C(N)=O [EBA175_008] (Ac-EKLWEAMLSEHKNNINN-NH2) | > 100 µM | 80.6 µM | 5.61 µM |  |  | > 100 µM |  |
| CC[C@H](C)[C@H](NC(=O)[C@H](CCSC)NC(=O)[C@H](CO)NC(=O)[C@H](C)NC(=O)[C@H](CC(N)=O)NC(=O)[C@H](CCCCN)NC(=O)[C@H](CC(N)=O)NC(=O)[C@H](CCCCN)NC(=O)[C@H](Cc1ccccc1)NC(=O)CNC(=O)[C@H](CCC(=O)O)NC(=O)[C@H](CCCCN)NC(C)=O)C(=O)N[C@@H](CCCCN)C(=O)N[C@@H](CO)C(=O)N[C@@H](C)C(=O)N[C@@H](Cc1ccccc1)C(=O)N[C@@H](CC(C)C)C(=O)N1CCC[C@H]1C(=O)N[C@H](C(=O)NCC(=O)N[C@@H](C)C(=O)N[C@@H](Cc1ccccc1)C(=O)N[C@@H](CCCCN)C(N)=O)[C@@H](C)O [AMA1_006C] (Ac-KEGFKNKNASMIKSAFLPTGAFK-NH2) |  |  |  |  |  |  | IC50 (HLA-DRB1*1501): 2.04 µM; IC50 (HLA-DRB1*0101): 1.2 µM; IC50 (HLA-DRB1*0801): 50.4 µM; IC50 (HLA-DRB1*0701): 1.29 µM; IC50 (HLA-DRB1*1301): > 100 µM |
| CC[C@H](C)[C@H](NC(=O)[C@H](CC(C)C)NC(=O)[C@H](CCCCN)NC(=O)[C@H](CCCCN)NC(=O)[C@H](CCCCN)NC(=O)[C@H](CCCCN)NC(=O)[C@@H](NC(=O)[C@H](CC(N)=O)NC(=O)[C@H](Cc1ccc(O)cc1)NC(=O)[C@H](CCC(=O)O)NC(=O)[C@H](CC(=O)O)NC(C)=O)[C@@H](C)O)C(=O)N[C@@H](CCCCN)C(=O)N[C@@H](CS)C(=O)N[C@H](C(=O)N[C@@H](CCCCN)C(=O)N[C@@H](CC(N)=O)C(=O)N[C@@H](Cc1c[nH]cn1)C(=O)N[C@@H](CCC(=O)O)C(=O)N[C@@H](CC(N)=O)C(=O)N[C@@H](CC(=O)O)C(=O)N[C@@H](Cc1ccccc1)C(=O)N[C@@H](CC(N)=O)C(N)=O)[C@@H](C)CC [RH5_008] (Ac-DEYNTKKKKLIKCIKNHENDFN-NH2) |  | 5.14 µM | 1 µM | 2.6 µM |  |  |  |
| CC[C@H](C)[C@H](NC(C)=O)C(=O)N[C@@H](CC(C)C)C(=O)N[C@@H](C)C(=O)N[C@H](C(=O)N[C@@H](C)C(=O)N[C@H](C(=O)N[C@@H](Cc1ccc(O)cc1)C(=O)N[C@@H](CCC(=O)O)C(=O)N[C@@H](CO)C(=O)N[C@@H](CCCNC(=N)N)C(=O)N[C@H](C(=O)N[C@@H](CC(C)C)C(=O)N[C@@H](CCCCN)C(=O)N[C@@H](CCCNC(=N)N)C(=O)N[C@@H](CCCCN)C(=O)N[C@@H](Cc1ccc(O)cc1)C(=O)N[C@@H](CCCCN)C(=O)N[C@@H](CC(N)=O)C(=O)N[C@@H](CCCCN)C(=O)N[C@@H](CC(=O)O)C(=O)N[C@@H](CC(=O)O)C(=O)N[C@@H](CCCCN)C(=O)N[C@@H](CCC(=O)O)C(N)=O)[C@@H](C)CC)[C@@H](C)CC)[C@@H](C)CC [EBA175_010] (Ac-ILAIAIYESRILKRKYKNKDDKE-NH2) | 44.2 µM | 0.035 µM | 0.27 µM | 17.6 µM | 6.27 µM | 4.41 µM |  |
